“And” between values parts separate entries of the source, which are not always exact repeats. Equal values may be shown once. Read-outs that look alike come from different tables or passages of the source. Where only a bound is given, the exact number is not on record here.

For assay [1], the target named is T1, full-length human CSNK1A1 (Homo sapiens, UniProt P48729).
T1 construct: N-terminal Glutathion-S-Transferase (GST) and full-length human CSNK1A1; purchased Life Technologies PV4174; host or cells: baculovirus infected insect cells
T1 sequence (P48729 whole entry): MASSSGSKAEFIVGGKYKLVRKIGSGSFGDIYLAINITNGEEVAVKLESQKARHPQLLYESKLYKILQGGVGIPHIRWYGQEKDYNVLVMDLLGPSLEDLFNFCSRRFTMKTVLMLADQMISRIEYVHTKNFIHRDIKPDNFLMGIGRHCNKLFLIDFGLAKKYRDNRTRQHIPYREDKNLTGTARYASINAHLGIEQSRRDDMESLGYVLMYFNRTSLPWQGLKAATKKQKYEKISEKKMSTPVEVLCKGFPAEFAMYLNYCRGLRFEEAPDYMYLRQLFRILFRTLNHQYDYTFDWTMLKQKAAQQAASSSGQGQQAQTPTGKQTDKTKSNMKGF
In words: CSNK1A1 Assay 2 (ADP-Glo, 1 μM ATP, substrate biotin-Ahx-KRRRAL-pS-VASLPGL). The conditions noted are these: Table 3, read-out: CSNK1A1 Assay 2 IC50 [mol/l] (median). It counts as biochemical. The procedure, abridged:
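Activity read as ADP generated (ADP-Glo luciferase luminescence, 1 h detection steps at 22 °C). Enzyme was insect-cell-expressed GST–full-length human CSNK1A1, compound-preincubated 15 min before reaction with phosphopeptide substrate and 1 μM ATP in 50 mM HEPES pH 7.5, 10 mM MgCl2.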

For assay [2], the target named is T2, wild-type Epidermal Growth Factor Receptor (EGFR) (Homo sapiens, UniProt P00533).
T2 construct: a fragment of human EGFR (amino acids R669 to A1210); made in house; host or cells: Sf9 insect cells
T2 sequence (P00533 669-1210): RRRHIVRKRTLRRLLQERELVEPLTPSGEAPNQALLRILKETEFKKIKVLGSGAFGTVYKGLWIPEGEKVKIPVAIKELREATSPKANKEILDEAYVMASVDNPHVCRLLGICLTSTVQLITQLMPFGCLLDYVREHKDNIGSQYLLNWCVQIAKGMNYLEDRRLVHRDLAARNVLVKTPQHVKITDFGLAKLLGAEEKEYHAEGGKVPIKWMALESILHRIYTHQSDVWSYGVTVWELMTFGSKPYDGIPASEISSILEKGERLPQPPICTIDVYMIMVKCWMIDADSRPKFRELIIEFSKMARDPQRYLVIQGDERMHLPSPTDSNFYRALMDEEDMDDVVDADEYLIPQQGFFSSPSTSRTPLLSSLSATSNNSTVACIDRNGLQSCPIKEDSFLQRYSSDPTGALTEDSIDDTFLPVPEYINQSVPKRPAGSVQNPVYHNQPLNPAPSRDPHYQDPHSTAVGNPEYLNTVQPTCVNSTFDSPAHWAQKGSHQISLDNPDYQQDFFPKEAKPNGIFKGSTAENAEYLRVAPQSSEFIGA
Nature of the assay: WT-EGFR Kinase Assay (TR-FRET, 2 mM ATP). It counts as biochemical. The method, boiled down: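 GST-fused human EGFR fragment (R669-A1210) from Sf9 cells, typically 7.6 pg/μL, pre-incubated with compound 15 min at 22° C in Hepes pH 7.0 buffer with MgCl2, DTT and vanadate; biotinylated peptide substrate. After EDTA stop, phosphopeptide detected by TR-FRET (anti-phosphotyrosine Tb-cryptate/streptavidin-XL665), 665/620 nm emission ratio.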
Background: In TR-FRET formats the signal depends on donor and acceptor labels being close together.

Where [3] appears, read: read-out: EGFR Wildtyp 2 mM ATP IC50 [mol/l] (median), Table 4.
The mark [4] stands for this setting: EGFR Wildtyp 2 mM ATP IC50 [mol/l] (median), Table 4.

On to `O=C(Nc1cc(-c2[nH]c3ccnnc3c2-c2ccccn2)ccn1)C(CC(F)F)c1ccc(F)cc1` (single isomer, unassigned) [Example 67, (2R or S)-4,4-difluoro-2-(4-fluorophenyl)-N-{4-[7-(pyridin-2-yl)-5H-pyrrolo[3,2-c]pyridazin-6-yl]pyridin-2-yl}butanamide], for which the IC50 in assay [1] was 22 nM; in assay [2] (setting [3]), > 20000 nM.

On to `O=C(Nc1cc(-c2[nH]c3cc(Cl)cnc3c2-c2ccccn2)ccn1)C(CC(F)F)c1ccc(F)cc1` (single isomer, unassigned) [Example 88, (+)—N-{4-[6-chloro-3-(pyridin-2-yl)-1H-pyrrolo[3,2-b]pyridin-2-yl]pyridin-2-yl}-4,4-difluoro-2-(4-fluorophenyl)butanamide], for which the IC50 was 4.72 nM in assay [1] and > 20000 nM in assay [2] (setting [4]).

As for `O=C(Nc1cc(-c2[nH]c3ncc(F)nc3c2-c2ccccn2)ccn1)C(CC(F)F)c1ccc(F)cc1` (single isomer, unassigned) [Example 64, (2R or S)-4,4-difluoro-2-(4-fluorophenyl)-N-{4-[2-fluoro-7-(pyridin-2-yl)-5H-pyrrolo[2,3-b]pyrazin-6-yl]pyridin-2-yl}butanamide], the IC50 in assay [1] is 23 nM; in assay [2] (setting [3]), > 20000 nM.

On to `O=C(Nc1cc(-c2[nH]c3c(OC[C@H]4COCCO4)cc(F)nc3c2-c2ccccn2)ccn1)C(CC(F)F)c1ccc(F)cc1` (single isomer, unassigned) [Example 52, (2R or S)—N-{4-[7-{[(2R)-1,4-dioxan-2-yl]methoxy}-5-fluoro-3-(pyridin-2-yl)-1H-pyrrolo[3,2-b]pyridin-2-yl]pyridin-2-yl}-4,4-difluoro-2-(4-fluorophenyl)butanamide], for which the IC50 was 17.2 nM in assay [1] and > 20000 nM in assay [2] (setting [3]).

`O=C(Nc1cc(-c2[nH]c3ncc(F)nc3c2-c2ccccn2)ccn1)C(CC(F)F)c1ccc(F)cc1` (racemic) [Example 62, (2RS)-4,4-difluoro-2-(4-fluorophenyl)-N-{4-[2-fluoro-7-(pyridin-2-yl)-5H-pyrrolo[2,3-b]pyrazin-6-yl]pyridin-2-yl}butanamide]: the results for the IC50 in assay [1] and in assay [2] (setting [4]) were 3.92 nM and > 20000 nM, respectively.

As to `O=C(Nc1cc(-c2[nH]c3cc(Cl)cnc3c2-c2ccccn2)ccn1)C(CC(F)F)c1ccc(F)cc1` (single isomer, unassigned) [Example 89, (−)—N-{4-[6-chloro-3-(pyridin-2-yl)-1H-pyrrolo[3,2-b]pyridin-2-yl]pyridin-2-yl}-4,4-difluoro-2-(4-fluorophenyl)butanamide], the values for the IC50 in assay [1] and in assay [2] (setting [3]) were 89 nM and > 20000 nM, respectively.

For `O=C(Nc1cc(-c2[nH]c3c(OC[C@@H]4COCCO4)cc(F)nc3c2-c2ccccn2)ccn1)C(CC(F)F)c1ccc(F)cc1` (mixture of isomers) [Example 57, (2RS)—N-(4-{7-[(2S)-1,4-dioxan-2-ylmethoxy]-5-fluoro-3-(pyridin-2-yl)-1H-pyrrolo[3,2-b]pyridin-2-yl}pyridin-2-yl)-4,4-difluoro-2-(4-fluorophenyl)butanamide], the IC50 was 7.89 nM in assay [1] and > 20000 nM in assay [2] (setting [4]).

Turning to `O=C(Nc1cc(-c2[nH]c3cc(Cl)nnc3c2-c2ccccn2)ccn1)C(CC(F)F)c1ccc(F)cc1` (racemic) [Example 68, (2RS)—N-{4-[3-chloro-7-(pyridin-2-yl)-5H-pyrrolo[3,2-c]pyridazin-6-yl]pyridin-2-yl}-4,4-difluoro-2-(4-fluorophenyl)butanamide], the results for the IC50 in assay [1] and in assay [2] (setting [4]) were 6.93 nM and > 20000 nM, respectively.

For `O=C(Nc1cc(-c2[nH]c3c(O[C@H]4CCOC4)ncnc3c2-c2ccccn2)ccn1)C(CC(F)F)c1ccc(F)cc1` (single isomer, unassigned) [Example 73, (2R or S)-4,4-difluoro-2-(4-fluorophenyl)-N-{4-[4-{[(3S)-oxolan-3-yl]oxy}-7-(pyridin-2-yl)-5H-pyrrolo[3,2-d]pyrimidin-6-yl]pyridin-2-yl}butanamide], the results for the IC50 in assay [1] and in assay [2] (setting [4]) were 4.16 nM and > 20000 nM, respectively.

Regarding `O=C(Nc1cc(-c2[nH]c3c(OCC(F)F)ncnc3c2-c2ccccn2)ccn1)C(CC(F)F)c1ccc(F)cc1` (single isomer, unassigned) [Example 80, (2R or S)—N-{4-[4-(2,2-difluoroethoxy)-7-(pyridin-2-yl)-5H-pyrrolo[3,2-d]pyrimidin-6-yl]pyridin-2-yl}-4,4-difluoro-2-(4-fluorophenyl)butanamide], the IC50 in assay [1] is 16.9 nM; in assay [2] (setting [3]) it was > 20000 nM.

On to `O=C(Nc1cc(-c2[nH]c3c(N4CCNCC4)ccnc3c2-c2ccccn2)ccn1)C(CC(F)F)c1ccc(F)cc1` (racemic) [Example 92, (2RS)-4,4-difluoro-2-(4-fluorophenyl)-N-{4-[7-(piperazin-1-yl)-3-(pyridin-2-yl)-1H-pyrrolo[3,2-b]pyridin-2-yl]pyridin-2-yl}butanamide], for which the IC50 in assay [1] was 2.35 nM; in assay [2] (setting [4]), > 20000 nM.

Consider `O=C(Nc1cc(-c2[nH]c3ccc(F)nc3c2-c2ccccn2)ccn1)[C@@H](CC(F)F)c1ccc(F)cc1` (single isomer, unassigned) [Example 2], for which the IC50 in assay [1] is 1.36 nM; in assay [2] (setting [4]), 18400 nM and > 20000 nM.

`Cc1ccnc2c(-c3ccccn3)c(-c3ccnc(NC(=O)C(CC(F)F)c4ccc(F)cc4)c3)[nH]c12` (stereo not drawn) [Example 84, 4,4-difluoro-2-(4-fluorophenyl)-N-{4-[7-methyl-3-(pyridin-2-yl)-1H-pyrrolo[3,2-b]pyridin-2-yl]pyridin-2-yl}butanamide]: the IC50 in assay [1] is 4.77 nM; in assay [2] (setting [4]), > 20000 nM.

As for `O=C(Nc1cc(-c2[nH]c3c(O[C@H]4CCOC4)cc(F)nc3c2-c2ccccn2)ccn1)C(CC(F)F)c1ccc(F)cc1` (single isomer, unassigned) [Example 55, (2R or S)-4,4-difluoro-N-{4-[5-fluoro-7-{[(3S)-oxolan-3-yl]oxy}-3-(pyridin-2-yl)-1H-pyrrolo[3,2-b]pyridin-2-yl]pyridin-2-yl}-2-(4-fluorophenyl)butanamide], the IC50 is 18.3 nM in assay [1] and > 20000 nM in assay [2] (setting [3]).

In the case of `O=C(Nc1cc(-c2[nH]c3c(N4CCOCC4)cc(F)nc3c2-c2ccccn2)ccn1)C(CC(F)F)c1ccc(F)cc1` (racemic) [Example 69, (2RS)-4,4-difluoro-N-{4-[5-fluoro-7-(morpholin-4-yl)-3-(pyridin-2-yl)-1H-pyrrolo[3,2-b]pyridin-2-yl]pyridin-2-yl}-2-(4-fluorophenyl)butanamide], the IC50 in assay [1] was 10.4 nM; in assay [2] (setting [4]), > 20000 nM.

With `O=C(Nc1cc(-c2[nH]c3c(O[C@H]4CCOC4)cc(F)nc3c2-c2ccccn2)ccn1)C(CC(F)F)c1ccc(F)cc1` (mixture of isomers) [Example 53, (2RS)-4,4-difluoro-N-{4-[5-fluoro-7-{[(3S)-oxolan-3-yl]oxy}-3-(pyridin-2-yl)-1H-pyrrolo[3,2-b]pyridin-2-yl]pyridin-2-yl}-2-(4-fluorophenyl)butanamide], the IC50 in assay [1] was 6 nM; in assay [2] (setting [4]), > 20000 nM.

Regarding `O=C(Nc1cc(-c2[nH]c3c(OC[C@@H]4COCCO4)cc(F)nc3c2-c2ccccn2)ccn1)C(CC(F)F)c1ccc(F)cc1` (single isomer, unassigned) [Example 59, (2R or S)—N-{4-[7-{[(2S)-1,4-dioxan-2-yl]methoxy}-5-fluoro-3-(pyridin-2-yl)-1H-pyrrolo[3,2-b]pyridin-2-yl]pyridin-2-yl}-4,4-difluoro-2-(4-fluorophenyl)butanamide], the figures for the IC50 in assay [1] and in assay [2] (setting [3]) were 12.7 nM and > 20000 nM, respectively.

As for `O=C(Nc1cc(-c2[nH]c3ccnnc3c2-c2ccccn2)ccn1)C(CC(F)F)c1ccc(F)cc1` (single isomer, unassigned) [Example 66, (2R or 2S)-4,4-difluoro-2-(4-fluorophenyl)-N-{4-[7-(pyridin-2-yl)-5H-pyrrolo[3,2-c]pyridazin-6-yl]pyridin-2-yl}butanamide], the figures for the IC50 in assay [1] and in assay [2] (setting [4]) were 2.43 nM and > 20000 nM, respectively.

With `O=C(Nc1cc(-c2[nH]c3c(OC[C@H]4COCCO4)cc(F)nc3c2-c2ccccn2)ccn1)C(CC(F)F)c1ccc(F)cc1` (single isomer, unassigned) [Example 51, (2R or S)—N-{4-[7-{[(2R)-1,4-dioxan-2-yl]methoxy}-5-fluoro-3-(pyridin-2-yl)-1H-pyrrolo[3,2-b]pyridin-2-yl]pyridin-2-yl}-4,4-difluoro-2-(4-fluorophenyl)butanamide], the figures for the IC50 in assay [1] and in assay [2] (setting [4]) were 4.65 nM and > 20000 nM, respectively.

Take `CN1CCN(c2cc(F)nc3c(-c4ccccn4)c(-c4ccnc(NC(=O)C(CC(F)F)c5ccc(F)cc5)c4)[nH]c23)CC1` (racemic) [Example 56, (2RS)-4,4-difluoro-N-{4-[5-fluoro-7-(4-methylpiperazin-1-yl)-3-(pyridin-2-yl)-1H-pyrrolo[3,2-b]pyridin-2-yl]pyridin-2-yl}-2-(4-fluorophenyl)butanamide]: the IC50 was 3.19 nM in assay [1] and > 20000 nM in assay [2] (setting [4]).

For `O=C(Nc1cc(-c2[nH]c3cc(F)cnc3c2-c2ccccn2)ccn1)C(CO)c1ccc(F)cc1` (racemic) [Example 71, (2RS)—N-(4-(6-fluoro-3-(pyridin-2-yl)-1H-pyrrolo[3,2-b]pyridin-2-yl)pyridin-2-yl)-2-(4-fluorophenyl)-3-hydroxypropanamide], the results for the IC50 in assay [1] and in assay [2] (setting [4]) were 8.21 nM and > 20000 nM, respectively.

These data come from patent US12692261B2, “Substituted heterocyclic compounds and therapeutic uses thereof” (Bayer Aktiengesellschaft, priority 2020, dated 2026).
